The values that follow come from article PMC7297817, “Pharmacological Characterization of a Betaine/GABA Transporter 1 (BGT1) Inhibitor Displaying an Unusual Biphasic Inhibition Profile and Anti-seizure Effects” (Neurochemical Research, 2020).

For orientation: IC50 means the concentration that inhibits the measured activity by half. High values mean lower potency, low ones higher potency. By inhibition is commonly meant the change of the read-out against control, counted positive when it falls.

SMILES strings stand for the structures.

For one assay, the target named is T1, mGAT2 (Mus musculus, UniProt P31649).
T1 construct: expressed in transfected cells
T1 sequence (P31649 whole entry): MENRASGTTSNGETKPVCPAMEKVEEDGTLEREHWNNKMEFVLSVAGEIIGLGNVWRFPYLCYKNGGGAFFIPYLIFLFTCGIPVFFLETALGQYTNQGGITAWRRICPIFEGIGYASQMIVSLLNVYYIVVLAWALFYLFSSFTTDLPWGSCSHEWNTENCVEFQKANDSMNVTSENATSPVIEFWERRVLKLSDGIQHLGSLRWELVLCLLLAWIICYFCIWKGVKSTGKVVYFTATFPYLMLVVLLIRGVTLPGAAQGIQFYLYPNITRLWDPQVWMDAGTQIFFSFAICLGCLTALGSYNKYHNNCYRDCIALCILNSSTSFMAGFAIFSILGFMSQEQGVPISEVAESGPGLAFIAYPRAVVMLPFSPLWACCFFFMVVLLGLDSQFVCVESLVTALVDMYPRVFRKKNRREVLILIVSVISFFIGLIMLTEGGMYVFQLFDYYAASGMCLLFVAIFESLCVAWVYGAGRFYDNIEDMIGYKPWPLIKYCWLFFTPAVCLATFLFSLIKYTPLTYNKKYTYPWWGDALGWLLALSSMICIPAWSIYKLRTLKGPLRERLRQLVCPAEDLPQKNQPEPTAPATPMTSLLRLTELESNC
Nature of the assay: [3H]GABA uptake at mGAT2 stably expressed in HEK-293 cells. It counts as cell-based. The procedure: (§1) The HEK-293 and Flp-In CHO cell lines stably expressing mouse (m) and human (h) GATs, respectively, have been described previously and were cultured accordingly. The tsA201 cell line was used for transient expression while the MDCK II cell line express BGT1 endogenously. Both cell lines were cultured as described. tsA201 cells were transfected with DNA constructs (8 μg per 10 cm dish if not otherwise mentioned) using 40 μL PolyFect transfection reagent according to the manufacturer’s protocol (Qiagen, Venlo, Netherlands). The DNA constructs encoding hBGT1, hGAT1-3 [36], the mutated constructs hBGT1 Q299 and hGAT3 L314Q described previously, and hBGT Y453A were synthesized and sequence validated by Genscript (NJ, USA).
(§2) The [^3H]GABA competition uptake assay was performed as previously described. A minor change, however, was introduced for uptake in MDCK II cells, in which 100 nM [^3H]GABA was used for a 15 min incubation period at 37 °C instead of 30 nM [^3H]GABA and 3 min incubation. Studies related to the inhibition curves with GABA and BPDBA at hBGT1 were obtained both with and without the presence of 10 μM ATP during the [^3H]GABA uptake assay.
(§3) The [^3H]GABA uptake data was normalized to the percentage of total uptake in the individual experiments in the presence of the lowest compound concentration or no compound present. […]

Another assay has as its system CF-1 mice. The experiment in a line: s.c.PTZ seizure threshold test. Particulars: 150 mg/kg i.p. The class given is in vivo, mouse. From the text: Male audiogenic-susceptible (AGS) Frings mice were obtained from an in-house breeding facility at the University of Utah (Salt Lake City, UT, USA). Male CF-1 mice for the maximal electroshock (MES) test and the subcutaneous pentylenetetrazol (s.c.PTZ) seizure threshold test were purchased from Charles River (Kingston, WA, USA). All mice were housed in a temperature, humidity, and light (on at 6:00 AM) controlled facility at the University of Utah with access to ad libitum food and water except during testing. All procedures were carried out at the University of Utah in concordance with the National Institutes of Health Guidelines for the Care and Use of Laboratory Animals and under approval from the University of Utah’s Institutional Animal Care and Use Committee. The mice were euthanized in accordance with Public Health Service policies on the humane care of laboratory animals. SBV2-114 was tested for its ability to prevent a minimal clonic seizure in the s.c.PTZ seizure test, which is a test of generalized myoclonic seizures. […] At the TPE, mice were challenged with a s.c. dose of PTZ (85 mg/kg) and observed for 30 min for the presence or absence of a minimal clonic seizure characterized by minimal forelimb clonus and/or vibrissae twitching. Mice not displaying this phenotypic behaviour were considered protected.

In the next assay the target is T2, hGAT3 (Homo sapiens, UniProt P48066).
T2 construct: expressed in transfected cells
T2 sequence (P48066 1-632): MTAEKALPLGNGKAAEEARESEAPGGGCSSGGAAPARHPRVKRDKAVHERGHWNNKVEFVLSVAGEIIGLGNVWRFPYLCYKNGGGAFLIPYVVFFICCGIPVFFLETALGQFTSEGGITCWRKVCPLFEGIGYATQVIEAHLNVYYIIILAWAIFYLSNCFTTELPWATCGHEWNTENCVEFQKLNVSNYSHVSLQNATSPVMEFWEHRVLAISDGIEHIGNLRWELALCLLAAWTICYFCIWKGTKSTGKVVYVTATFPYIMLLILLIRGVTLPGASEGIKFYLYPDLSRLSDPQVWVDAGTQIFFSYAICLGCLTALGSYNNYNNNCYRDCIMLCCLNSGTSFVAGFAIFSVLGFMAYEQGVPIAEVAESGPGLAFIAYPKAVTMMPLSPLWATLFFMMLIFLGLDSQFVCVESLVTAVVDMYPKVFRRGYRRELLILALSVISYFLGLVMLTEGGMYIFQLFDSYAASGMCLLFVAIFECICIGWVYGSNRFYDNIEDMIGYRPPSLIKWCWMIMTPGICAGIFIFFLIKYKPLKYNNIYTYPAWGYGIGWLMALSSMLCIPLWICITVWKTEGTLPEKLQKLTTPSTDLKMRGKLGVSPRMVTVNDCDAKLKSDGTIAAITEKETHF
The experiment in a line: [3H]GABA uptake at hGAT3 transiently expressed in tsA201 cells. The class given is cell-based. Particulars: 30 nM [3H]GABA, 3 min, F test P < 0.05. As to the method: as §1, §2, §3

A further assay addresses T3, 5-HT3 (Homo sapiens, UniProt P46098).
T3 construct: purchased NIMH Psychoactive Drug Screening Program (PDSP)
The experiment in a line: NIMH PDSP radioligand binding, 5-HT3. Particulars: radioligand [3H]LY278584, n=4.

The target in a further assay is Sigma1 (Cavia porcellus, UniProt Q60492). The experiment in a line: NIMH PDSP radioligand binding, Sigma1. The note with it: radioligand [3H]pentazocine(+), n=4. As to the method: IC50 values in μM (Ki μM)^a. The targets in bold were inhibited by >35% at 10 μM.
Sequence of Sigma1 (Q60492 whole entry): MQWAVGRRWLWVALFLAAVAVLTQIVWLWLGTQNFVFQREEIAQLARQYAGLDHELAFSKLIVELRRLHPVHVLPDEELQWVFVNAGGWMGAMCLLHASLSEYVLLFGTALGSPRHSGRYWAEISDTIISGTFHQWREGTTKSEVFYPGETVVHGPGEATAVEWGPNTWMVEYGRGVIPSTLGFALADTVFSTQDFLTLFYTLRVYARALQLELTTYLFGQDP
The next assay deals with T4, SERT (Homo sapiens, UniProt P31645).
T4 construct: purchased NIMH Psychoactive Drug Screening Program (PDSP)
T4 sequence (P31645 whole entry): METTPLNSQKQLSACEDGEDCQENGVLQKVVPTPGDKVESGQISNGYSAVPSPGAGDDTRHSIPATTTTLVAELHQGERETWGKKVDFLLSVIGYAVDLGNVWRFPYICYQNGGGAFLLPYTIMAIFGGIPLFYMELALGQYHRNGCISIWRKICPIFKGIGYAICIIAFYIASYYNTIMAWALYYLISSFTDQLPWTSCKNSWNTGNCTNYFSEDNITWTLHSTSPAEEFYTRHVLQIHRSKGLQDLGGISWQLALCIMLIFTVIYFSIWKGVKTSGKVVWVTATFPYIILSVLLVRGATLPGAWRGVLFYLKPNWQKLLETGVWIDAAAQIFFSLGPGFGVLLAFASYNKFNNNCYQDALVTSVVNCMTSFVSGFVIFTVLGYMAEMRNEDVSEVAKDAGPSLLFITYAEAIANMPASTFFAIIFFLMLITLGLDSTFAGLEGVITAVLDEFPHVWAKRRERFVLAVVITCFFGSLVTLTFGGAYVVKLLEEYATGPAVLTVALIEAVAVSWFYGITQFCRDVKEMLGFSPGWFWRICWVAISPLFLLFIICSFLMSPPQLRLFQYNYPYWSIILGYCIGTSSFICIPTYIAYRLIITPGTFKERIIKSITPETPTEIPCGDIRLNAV
The experiment in a line: NIMH PDSP radioligand binding, SERT. The note with it: radioligand [3H]citalopram, n=4.

A further assay has as its target T5, KOR (Homo sapiens, UniProt P41145).
T5 construct: purchased NIMH Psychoactive Drug Screening Program (PDSP)
Nature of the assay: NIMH PDSP radioligand binding, KOR. Particulars: radioligand [3H]U69593, n=4.

T5 sequence (P41145 whole entry): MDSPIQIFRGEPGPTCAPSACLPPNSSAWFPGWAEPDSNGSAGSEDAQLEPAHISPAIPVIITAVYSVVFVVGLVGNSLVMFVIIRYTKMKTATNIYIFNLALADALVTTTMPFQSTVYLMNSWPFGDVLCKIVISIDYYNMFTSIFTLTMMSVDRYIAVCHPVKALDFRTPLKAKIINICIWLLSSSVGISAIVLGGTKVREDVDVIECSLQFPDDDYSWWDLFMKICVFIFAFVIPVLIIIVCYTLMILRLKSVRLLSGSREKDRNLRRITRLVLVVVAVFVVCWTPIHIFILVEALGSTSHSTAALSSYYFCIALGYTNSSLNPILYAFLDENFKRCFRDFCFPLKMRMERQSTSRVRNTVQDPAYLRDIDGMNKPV
T3 sequence (P46098 24-478): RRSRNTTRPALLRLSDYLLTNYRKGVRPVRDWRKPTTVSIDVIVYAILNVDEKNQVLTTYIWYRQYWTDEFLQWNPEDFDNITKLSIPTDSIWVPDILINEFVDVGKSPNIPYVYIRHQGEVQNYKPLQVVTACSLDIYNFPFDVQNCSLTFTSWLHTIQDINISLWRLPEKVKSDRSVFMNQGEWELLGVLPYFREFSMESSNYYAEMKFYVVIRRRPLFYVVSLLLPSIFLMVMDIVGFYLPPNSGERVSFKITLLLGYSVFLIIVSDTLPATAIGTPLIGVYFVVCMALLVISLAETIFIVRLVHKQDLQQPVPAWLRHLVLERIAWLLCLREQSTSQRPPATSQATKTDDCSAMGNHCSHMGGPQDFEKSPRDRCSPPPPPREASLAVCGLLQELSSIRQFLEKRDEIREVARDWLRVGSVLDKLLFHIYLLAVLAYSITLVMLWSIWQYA

Turning to `Cc1ccsc1C(=CCCN(C)[C@H]1CCCC[C@H]1C(=O)O)c1sccc1C` [SBV2-114, (1R,2S)-2-((4,4-bis(3-methylthiophen-2-yl)but-3-en-yl)(methyl)amino)cyclohexanecarboxylic acid], the IC50 at mGAT2 was above 1000 µM. Moreover, at mGAT2 (preferred model, N=3), the Fit entry is “Ambiguous”. Further, in the assay with CF-1 mice, the “effect on s.c.PTZ-induced seizures” value is reported as “did not block s.c.PTZ-induced seizures”. The “#Protected/#Tested” value in the assay on CF-1 mice (30 min, PTZ 85 mg/kg s.c.) was 0/8. Besides, the preferred fit result on hGAT3 is reported as “biphasic fit”. In addition, the inhibition at 10 µM is -3% on 5-HT3, 55.6% on Sigma1, 18.8% on SERT and 40.8% on KOR.
